Results from US7355024B2, “Regulatory sequences for modulation of INGAP expression and reporter constructs” (GMP Endotherapeutics, Inc., priority 2002, dated 2008).

Key:
[1] = tested on: hamster INGAP 5′-regulatory region; assay: β-galactosidase reporter assay with hamster INGAP 5′-regulatory region fragments in transfected 293T cells; type: cell-based; conditions: human 293T cells
Text: Promoter analysis of INGAP identified a number of potential promoter-proximal regulatory sites including the consensus transcription factor binding sites; cAMP response element (CRE), AP-1 and STAT. Promoter-fragment reporter-gene constructs were transiently transfected into 293T cells and co-transfection of secretory alkaline phosphatase was used to normalize for transfection efficiency.
Reporter constructs containing INGAP 5′-regulatory region fragments 2—3sP (SEQ ID NO: 37), 2—3dP (SEQ ID NO: 38), 2—3pP (SEQ ID NO: 36), 14—3P (SEQ ID NO: 34), 16—3P (SEQ ID NO: 31), or 19—3P (SEQ ID NO: 23) were transfected into human cells. The pβGal-Basic plasmid without the hamster INGAP DNA was also transfected into human cells as a control to measure the level of endogenous reporter activity. Two days following transfection, the cells were treated with PMA for 24 hours or were untreated. To determine the level of promoter activity, the amount of β-galactosidase gene product was determined using a luminescent assay for β-galactosidase.
Reporter construct containing INGAP 5′-regulatory region DNA nucleotides 2030 to 3120 was transfected into human cells. The pβGal-Basic plasmid without the hamster INGAP DNA was also transfected into human cells as a control to measure the level of endogenous reporter activity. Two days following transfection, the cells were treated with LIF for 24 hours or were untreated. To determine the level of promoter activity, the amount of β-galactosidase gene product was determined using a luminescent assay for β-galactosidase.
To map the approximate location of PMA-initiated or LIF-initiated transcription factor binding different fragments of the hamster INGAP 5′-regulatory region were cloned into pβGal-Basic. The fragments cloned into the reporter construct were 2—3sP (SEQ ID NO: 37), 2—3dP (SEQ ID NO: 38), 2—3pP (SEQ ID NO: 36), 14—3P (SEQ ID NO: 34), 16—3P (SEQ ID NO: 31), or 19—3P (SEQ ID NO: 23). […] To determine the level of promoter activity, the amount of β-galactosidase gene product was determined using a luminescent assay for β-galactosidase. […]

[2] = tested on: INGAP gene; assay: Northern RNA analysis of INGAP gene upregulation in AR42J cells; type: cell-based; conditions: rat AR42J cells; IL-6 1000 U/ml, 24 hours; FIG. 12
Description: To determine if INGAP RNA levels increase after stimulation with a cytokine that signals through STAT, rat amphocrine pancreatic cells, AR42J were treated with IL-6 (1000 U/ml) for 24 hours. Total RNA was extracted from the treated and untreated cells using techniques well known in the art, e.g., using TRIZOL® reagent.
Equal amounts of total RNA (10 μg) were loaded in 2.5% formaldehyde gel and electrophoresed for 4 hours at 70V with a constant circulation of the buffer using a circulating pump. The gel was photographed and washed with water twice at room temperature and soaked in 20×SSC. The gel was transferred to a nylon membrane (Amersham) in 20×SSC overnight following a standard procedure. The membrane was washed with 20×SSC to remove any agar that might have attached to the membrane and baked for 4 hours at […].
One hundred nanograms of hamster INGAP cDNA was labeled using Random Prime Labeling kit (Roche-BMB) and alpha-P^32 dCTP (ICN). Approximately 20 million counts were used for hybridization in 20 ml hybridization buffer following the standard procedure at 42° for overnight. The blot was washed as follows: 2-times at room temperature with 2×SSC for 10 minutes each; 2-times at 42° with 2×SSC for 10 minutes each; 2-times at 55° with 1×SSC for 10 minutes each. The membrane was exposed to the film (XOMAT-Kodak) and kept at −80° C. overnight before developing.

CCCCCCCCCCCCCC(=O)O[C@@H]1[C@@H](C)[C@@]2(O)[C@@H](C=C(CO)C[C@]3(O)C(=O)C(C)=C[C@@H]23)[C@@H]2C(C)(C)[C@]12OC(C)=O [PMA, phorbol myristate acetate, reference compound]
promoter activity (β-galactosidase reporter, luminescent assay) ([1]; constructs 2_3sP, 2_3dP, 2_3pP, 14_3P, 16_3P, 19_3P, PMA 6, 17, 50, 100 or 300 ng/ml, 24 hours, FIG. 10): activated the cell reporter constructs

IL-6: cytokine that signals through STAT
INGAP gene expression (RNA, Northern analysis) [2]: increase in INGAP gene expression

LIF: human leukemia inhibitory factor (hLIF)
promoter activity (β-galactosidase reporter, luminescent assay) ([1]; construct with INGAP 5′-regulatory region nucleotides 2030 to 3120, treated 24 hours, two days after transfection, FIG. 9B): increase the activity of the 5′-regulatory region of mammalian INGAP | promoter activity (β-galactosidase reporter, luminescent assay) ([1]; constructs 2_3sP, 2_3dP, 2_3pP, 14_3P, 16_3P, 19_3P, LIF 1, 10 or 30 ng/ml, 24 hours, FIG. 11): activated the cell reporter constructs
